# Experimental data reported in patent US9540647B2, “Methods and compositions for the treatment of cancer” (University of South Alabama, priority 2010, dated 2017).
# “Also recorded” adds a separate entry of the source.
# Assays:
# [1] = system: SHH and IHH; test: SHH and IHH protein expression in A2780 and A2780-CP70 cells (Western blot); assay type: cell-based, human; conditions: cyclopamine
# [2] = system: c-jun; test: c-jun and c-fos protein expression and c-jun phosphorylation in A2780-CP70 cells (Western blot); assay type: cell-based, human; conditions: cyclopamine
# Protocol: c-jun protein expression was assessed in cisplatin-treated A2780-CP70 cells using Western blot analysis.
# Protein expression of c-fos and phosphorylation of c-jun in cyclopamine-treated A2780-CP70 cells was assessed using Western blot analysis. Protein levels for c-jun, c-fos, phosphorylated c-jun (Ser 63), phosphorylated c-jun (Ser 73), and phosphorylated c-jun (Thr 91, Thr 93) were tested in cytosolic, nuclear, and whole cell fractions at 0 hr, 6 hr, 24 hr, 48 hr, and 72 hr. Internal controls for cytosolic and nuclear fractions included α-tubulin and histone deacetylase 3.
# Phosphorylation of c-jun in A2780-CP70 cells transfected with anti-GLI1 shRNA construct was assessed using Western blot analysis. Protein levels for c-jun, phosphorylated c-jun (Ser 63), phosphorylated c-jun (Ser 73), and phosphorylated c-jun (Thr 91, Thr 93) were examined at 0 hr, 6 hr, 24 hr, 48 hr, and 72 hr.
# [3] = system: pancreatic cancer; conditions: blockade of Hedgehog signaling, inhibiting EMT; cited from earlier work
# [4] = system: OPN promoter; test: OPN promoter luciferase reporter assay in metastatic melanoma cell lines; assay type: cell-based, human
# Text: Empty pGL3 vector was used as control. […] Readings were normalized to total protein content. Each parameter was studied in triplicate and the experiment repeated at least 3 times. The data are represented as percent luciferase activity, which was derived as a percent of the relative light units in treated groups compared with the untreated groups.
# [5] = system: MC3T3-E1 pre-osteoblast cells; test: Osteoblast differentiation and mineralization (ALP, Alizarin Red S, BSP, osteocalcin); assay type: cell-based, murine
# Protocol: The procedure for differentiation of osteoblasts was standardized. MC3T3-E1 cells were cultured in the presence of ascorbic acid and β-glycerophosphate. Mineralization was examined by Alizarin RedS staining (Ueno, A., et al. (2001). Matrix Biol 20, 347-355; Lee, Y. K., et al. (2004). J Biomed Mater Res A 69, 188-195; Duarte, W. R., et al. (2003). S100A4: a novel negative regulator of mineralization and osteoblast differentiation. J Bone Miner Res 18, 493-501). Referring to FIG. 13 and FIG. 14, differentiation was evident by intense red staining in presence of differentiation medium and in differentiation medium containing SHH compared to the control, growth medium. This was also evident in the intensity of absorbance and in the numbers of mineralized nodules formed (counted under the microscope) (FIG. 15).
# Induction of osteoblastic and osteoclastic differentiation—In order to test the effect of conditioned medium from the tumor cells on osteoblast differentiation, a double-strength differentiation medium (DM) was formulated for MC3T3 E1 Sc-14 cells. It comprised αMEM, 20% FBS, 50 μg/ml ascorbic acid and 20 mM β-glycerophosphate. Conditioned media and the double-strength DM were mixed in a 1:1 ratio. 1×DM was used as control. Similarly a double-strength differentiation medium was formulated for RAW 264.7 cell lines. It consisted of 20% FBS, 50 ng/ml of RANKL and 20 ng/ml of M-CSF added to the growth medium. Conditioned media from the tumor cells was mixed 1:1 with the double-strength DM. 1×DM was used as control. Osteoblast differentiation was assessed by alkaline phosphatase (ALP) activity assay in the perspective of total phosphatase. The functional assessment of osteoblast mineralization was quantified by staining with Alizarin Red S and scoring the number of mineralized nodules.
# Quantitative RT-PCR (qRT-PCR)—cDNA was generated using High Capacity Reverse Transcriptase Kit (Applied Biosystems, Foster City, Calif.). Real time PCR was performed using a BioRad iQ5 Real-Time Detection system (Bio-Rad, Hercules, Calif.). All reactions were done in triplicate. OPN transcript levels were normalized to GAPDH levels (dCT) which was used to calculate changes in OPN expression (2-ddCT). […] The primers used included Sppl (OPN) (Mm 00436767_m1); Bglap (osteocalcin) (Mm 01741771_g1); IBSP (Mm 00492555_m1); PTHrP (Mm 00433057_m1); RANKL (Mm 00441906_m1); GAPDH (Mm 99999915_g1).
Compound,IHH protein levels ([1]; 24 hr),SHH protein levels ([1]; 24 hr),IHH protein levels ([1]; 48 hr and 72 hr),SHH protein levels ([1]; 48 hr and 72 hr),c-fos protein levels [2],phosphorylated c-jun (Ser 73) [2],"phosphorylated c-jun (Thr 91, Thr 93) [2]",expression of c-jun protein in nuclear fractions ([2]; 0-72 hr),phosphorylated c-jun (Ser 63) ([2]; 0-72 hr),c-jun protein levels ([2]; cytosolic and nuclear fractions),pancreatic cancer invasion and metastasis [3],"OPN promoter activity ([4]; MCC012A cells, Hedgehog ligand treatment)","OPN promoter activity ([4]; MCC012F cells, Hedgehog ligand treatment)","OPN promoter activity ([4]; MDA-MB-435 cells, increasing concentrations of ligand vs untreated control)","alkaline phosphatase (ALP) activity, osteoblast differentiation ([5]; DM supplemented with 100 nM recombinant ligand vs DM alone)","mineralized nodules / Alizarin Red staining ([5]; DM with recombinant ligand vs DM alone, 14 days)","expression of BSP ([5]; in presence of SHH, 14 days)","expression of osteocalcin ([5]; in presence of SHH, 14 days)"
CC1=C2C[C@H]3[C@@H](CC=C4C[C@@H](O)CC[C@@]43C)[C@@H]2CC[C@]12O[C@@H]1C[C@H](C)CN[C@H]1[C@H]2C [cyclopamine],reduced,reduced,rebounded,rebounded,increased substantially at 6 hr,"gradual increase in levels at 24 hour, 48 hr, and 72 hr",peak levels at 6 hr,peaked at 48 hr,no substantial expression was detected over 72 hr,increased in cytosolic and nuclear fractions at 48 hr and 72 hr,suppressed pancreatic cancer invasion and metastasis,–,–,–,–,–,–,–
SHH: recombinant Sonic Hedgehog ligand (R & D Systems),–,–,–,–,–,–,–,–,–,–,–,significant increase,significant increase,significantly (p<0.0001) higher,promotes differentiation; also recorded: significantly greater,promote differentiation; also recorded: significantly greater number of mineralized nodules,significantly elevated,significantly elevated
